Target: T1, GLP-1R (Homo sapiens, UniProt P43220)
T1 construct: host or cells: CRE-bla CHO-K1
Assay: EC20 GLP-1(9-36) PAM cAMP assay: dose response of compound in the presence of fixed concentration of GLP-1(9-36)
Type: cell-based
Settings: GLP-1R CRE-bla CHO-K1 cells, compound dose response in presence of fixed concentration of GLP-1(9-36)
Experimental: EC20 GLP-1(9-36) PAM cAMP Assay: Dose Response of Compound in the Presence of Fixed Concentration of GLP-1 (9-36).
GLP-1R CRE-bla CHO-K1 cells cultured in growth medium (DMEM-High glucose, 10% dialyzed FBS, 0.1 mM NEAA, 25 mM Hepes, 100 U/mL penicillin/100 μg/mL streptomycin, 5 μg/mL Blasticidin, 600 μg/mL Hygromycin) were tryspsinized and plated in suspension into 384 well white flat bottom plates at 5000 cells/well in 12 μL assay buffer (Hanks Balanced Salt solution, 10 mM Hepes, 0.1% BSA, pH 7.4). A 5× compound dose response curve (12-point) was generated in assay buffer containing 1.5 mM IBMX, 12.5% DMSO. GLP-1(9-36) was diluted to 4.2 μM in assay buffer containing 1.5 mM IBMX and 12.5% DMSO. The 5× compound dose response was added (3 μL), followed by 0.5 μL of GLP-1(9-36) and cells were incubated for 30 min at 37° C. Direct detection of cAMP was carried out using DiscoveRx HitHunter cAMP kit according to manufacturer's instructions and luminescence was read using a SpectraMax M5 plate reader. Luminescence was converted to total cAMP using a cAMP standard curve and data was analyzed by non-linear regression to determine the EC50 and Emax.
GLP-1(7-36): […]-NH2. GLP-1(9-36): […]-NH2. GLP-1(7-36) was purchased from GenScript. GLP-1(9-36) was purchased from Biopeptide Co., Inc.

T1 sequence (P43220 24-463): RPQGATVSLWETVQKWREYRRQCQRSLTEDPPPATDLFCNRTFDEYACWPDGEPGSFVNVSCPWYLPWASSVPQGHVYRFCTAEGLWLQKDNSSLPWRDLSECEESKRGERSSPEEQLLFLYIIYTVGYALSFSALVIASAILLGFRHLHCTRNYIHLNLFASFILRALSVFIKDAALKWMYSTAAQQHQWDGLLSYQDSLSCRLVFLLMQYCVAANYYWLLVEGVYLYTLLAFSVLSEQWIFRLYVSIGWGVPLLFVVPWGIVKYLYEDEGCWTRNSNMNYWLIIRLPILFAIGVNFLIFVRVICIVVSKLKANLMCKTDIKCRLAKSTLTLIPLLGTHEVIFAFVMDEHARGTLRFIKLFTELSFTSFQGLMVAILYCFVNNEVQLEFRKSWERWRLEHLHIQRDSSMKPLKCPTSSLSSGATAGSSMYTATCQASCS
T1 sequence (P01275 100-127 partner limits assumed): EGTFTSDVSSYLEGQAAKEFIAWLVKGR

Row | EC50 [µM] | SMILES
1 | 0.8 to 2.5 | CCCCCCCOc1ccc(-c2cnc(-c3ccc(C[C@H](NC(=O)c4ccc(C(C)(C)C)s4)C(=O)N[C@H](CC(=O)O)C(=O)O)cc3)nc2)cc1 [Compound 324]
2 | 0.8 to 2.5 | CC(C)(C)c1ccc(-c2cnc(-c3ccc(C[C@H](NC(=O)c4ccc(C(C)(C)C)s4)C(=O)N[C@H](CCC(=O)O)C(=O)O)cc3)nc2)cc1 [Compound 359]
3 | 5 to 10 | CCCCCCCOc1ccc(-c2cnc(-c3ccc(CC(NC(=O)c4ccc(C(C)(C)C)cc4)C(=O)O)cc3)s2)cc1 (stereo not drawn) [Compound 81]
4 | 0.8 to 2.5 | CCCCCCCOc1ccc(-c2nnc(-c3ccc(C[C@H](NC(=O)c4ccc(C(C)(C)C)cc4)C(=O)O)cc3)s2)cc1 [Compound 83]
5 | 5 to 10 | CC(C)(C)c1ccc(C(=O)N[C@@H](Cc2ccc(-c3noc(-c4ccc(-c5ccccc5)cc4)n3)cc2)C(=O)O)cc1 [Compound 4]
6 | 0.8 to 2.5 | CCCCCCCOc1ccc(-c2cnc(-c3ccc(C[C@H](NC(=O)c4cccc(C(C)C)c4)C(=O)O)cc3)nc2)cc1 [Compound 95]
7 | 0.8 to 2.5 | CSCC[C@H](NC(=O)[C@H](Cc1ccc(-c2ncc(-c3ccc(C(C)(C)C)cc3)cn2)cc1)NC(=O)c1ccc(C(C)(C)C)s1)C(=O)O [Compound 367]
8 | 5 to 10 | CCCCCCCOc1ccc(-c2cnc(-c3ccc(C[C@H](NC(=O)Cc4ccccc4)C(=O)O)cc3)nc2)cc1 [Compound 88]
9 | 2.5 to 5 | CC(C)(C)c1ccc(C(=O)N[C@@H](Cc2ccc(-c3noc(-c4ccc(-c5cccc(C#N)c5)cc4)n3)cc2)C(=O)O)cc1 [Compound 28]
10 | 2.5 to 5 | CC(C)Sc1ccc(-c2nc(-c3ccc(C[C@H](NC(=O)c4ccc(C(C)(C)C)cc4)C(=O)O)cc3)no2)cc1 [Compound 59]
11 | 0.8 to 2.5 | CC(C)(C)c1ccc(-c2cnc(-c3ccc(C[C@H](NC(=O)c4ccc(C(C)(C)C)s4)C(=O)O)cc3)cn2)cc1 [Compound 282]
12 | 0.8 to 2.5 | CCCCCCCOc1ccc(-c2cnc(-c3ccc(C[C@H](NC(=O)c4ccc(C(C)(C)C)cc4)C(=O)NCC(=O)Nc4nn[nH]n4)cc3)nc2)cc1 [Compound 303]
13 | 0.8 to 2.5 | CCCCCCCOc1ccc(-c2cnc(-c3ccc(C[C@H](NC(=O)c4cc5ccc(C)cc5s4)C(=O)O)cc3)nc2)cc1 [Compound 157]
14 | 0.8 to 2.5 | CCCCCCCOc1ccc(-c2cnc(-c3ccc(C[C@H](NC(=O)c4ccc(O)cc4)C(=O)O)cc3)nc2)cc1 [Compound 114, (S)-3-(4-(5-(4-(heptyloxy)phenyl)pyrimidin-2-yl)phenyl)-2-(4-hydroxybenzamido)propanoic acid]
15 | 0.8 to 2.5 | CCCCCCCOc1ccc(-c2cnc(-c3ccc(C[C@H](NC(=O)c4ccc(C(C)(C)C)s4)C(=O)N4CC[C@@H](C(=O)O)C4)cc3)nc2)cc1 [Compound 348]
16 | 0.8 to 2.5 | CCCCCCCOc1ccc(-c2cnc(-c3ccc(C[C@H](NC(=O)c4ccc(C(C)(C)C)s4)C(=O)N[C@@H](CC(=O)O)C(=O)O)cc3)nc2)cc1 [Compound 322]
17 | 0.8 to 2.5 | CC(C)(C)c1ccc(C(=O)N[C@@H](Cc2ccc(-c3noc(-c4ccc(C(C)(C)C)cc4)n3)cc2)C(=O)O)cc1 [Compound 8]
18 | 0.8 to 2.5 | CCCCCCCOc1ccc(-c2cnc(-c3ccc(C[C@H](NC(=O)c4ccc(C(C)(C)C)cc4)C(=O)O)cc3)cn2)cc1 [Compound 272]
19 | 2.5 to 5 | CCSc1ccc(-c2nc(-c3ccc(C[C@H](NC(=O)c4ccc(C(C)(C)C)cc4)C(=O)O)cc3)no2)cc1 [Compound 42]
20 | 0.8 to 2.5 | CCCOc1ccc(-c2cnc(-c3ccc(C[C@H](NC(=O)c4ccc(C(C)(C)C)cc4)C(=O)O)cc3)nc2)cc1 [Compound 222]
21 | 5 to 10 | COc1cc(C)ccc1-c1nc(-c2ccc(C[C@H](NC(=O)c3ccc(C(C)(C)C)cc3)C(=O)O)cc2)no1 [Compound 9]
22 | 0.8 to 2.5 | COc1ccc(C(=O)N[C@@H](Cc2ccc(-c3ncc(-c4ccc(C(C)(C)C)cc4)cn3)cc2)C(=O)O)cc1 [Compound 170]
23 | < 0.8 | CCCCCCCOc1ccc(-c2cnc(-c3ccc(C[C@H](NC(=O)c4ccc(C)c(C)c4)C(=O)O)cc3)nc2)cc1 [Compound 117]
24 | < 0.8 | CC(C)c1ncc(C(=O)N[C@@H](Cc2ccc(-c3ncc(-c4ccc(C(C)(C)C)cc4)cn3)cc2)C(=O)O)s1 [Compound 180]
25 | 0.8 to 2.5 | Cc1cc(-c2cnc(-c3ccc(C[C@H](NC(=O)c4ccc(C(C)(C)C)cc4)C(=O)O)cc3)nc2)ccc1N(C)C [Compound 232]
26 | 0.8 to 2.5 | CNc1ccc(-c2nc(-c3ccc(C[C@H](NC(=O)c4ccc(C(C)(C)C)cc4)C(=O)O)cc3)no2)cc1 [Compound 63]

Row | EC50 [µM] | SMILES
27 | < 0.8 | CC(C)(C)c1ccc(-c2cnc(-c3ccc(C[C@H](NC(=O)c4ccc(O)cc4)C(=O)O)cc3)nc2)cc1 [Compound 175]
28 | 0.8 to 2.5 | CC(C)(C)c1ccc(C(=O)N[C@@H](Cc2ccc(-c3noc(-c4ccc(-c5ccccc5Cl)cc4)n3)cc2)C(=O)O)cc1 [Compound 18]
29 | 2.5 to 5 | CN(C)c1cccc(-c2nc(-c3ccc(C[C@H](NC(=O)c4ccc(C(C)(C)C)cc4)C(=O)O)cc3)no2)c1 [Compound 53]
30 | 0.8 to 2.5 | CCCCCCCOc1ccc(-c2cnc(-c3ccc(C[C@H](NC(=O)c4ccc(NCCCC)cc4)C(=O)O)cc3)nc2)cc1 [Compound 124]
31 | < 0.8 | CCCCCCCOc1ccc(-c2cnc(-c3ccc(C[C@H](NC(=O)c4ccc(C(C)(C)C)cc4)C(=O)NS(C)(=O)=O)cc3)nc2)cc1 [Compound 299, (S)-4-(tert-butyl)-N-(3-(4 (5 (4 (heptyloxy)phenyl)pyrimidin-2-yl)phenyl)-1-(methylsulfonamido)-1-oxopropan-2-yl)benzamide]
32 | 0.8 to 2.5 | CCCCCCCOc1ccc(-c2coc(-c3ccc(C[C@H](NC(=O)c4ccc(C(C)(C)C)cc4)C(=O)O)cc3)n2)cc1 [Compound 77]
33 | 2.5 to 5 | CCCCCCCOc1ccc(-c2nc(-c3ccc(C[C@H](NC(=O)c4ccc(C(C)(C)C)cc4)C(=O)O)cc3)no2)cn1 [Compound 51]
34 | 0.8 to 2.5 | COc1cc(OC)cc(-c2nc(-c3ccc(C[C@H](NC(=O)c4ccc(C(C)(C)C)cc4)C(=O)O)cc3)no2)c1 [Compound 38]
35 | 0.8 to 2.5 | CCCCCCCOc1ccc(-c2cnc(-c3ccc(C[C@H](NC(=O)c4ccc(OC)cc4F)C(=O)O)cc3)nc2)cc1 [Compound 109]
36 | 2.5 to 5 | CCCCCCCOc1ccc(-c2cnc(-c3ccc(C[C@H](NC(=O)c4ccc(C(C)(C)C)cc4)C(=O)N(C)CCC(=O)O)cc3)nc2)cc1 [Compound 302]
37 | 2.5 to 5 | CC(C)(C)c1ccc(C(=O)N[C@@H](Cc2ccc(-c3noc(-c4ccc(-c5cc(F)ccc5F)cc4)n3)cc2)C(=O)O)cc1 [Compound 23]
38 | 0.8 to 2.5 | CCCCCCCCOc1ccc(-c2cnc(-c3ccc(C[C@H](NC(=O)c4ccc(C(C)(C)C)s4)C(=O)O)cc3)nc2)cc1 [Compound 259]
39 | 0.8 to 2.5 | CCCCCCCOc1ccc(-c2cnc(-c3ccc(C[C@H](NC(=O)c4cnc(C(C)C)nc4)C(=O)O)cc3)nc2)cc1 [Compound 131]
40 | 0.8 to 2.5 | CCCCCCCOc1ccc(-c2cnc(-c3ccc(C[C@H](NC(=O)c4ccc(CN(C)C)cc4)C(=O)O)cc3)nc2)cc1 [Compound 134]
41 | 2.5 to 5 | CC(C)(C)c1ccc(C(=O)N[C@@H](Cc2ccc(-c3noc(-c4ccc(-c5ccc(F)cc5)cc4)n3)cc2)C(=O)O)cc1 [Compound 21]
42 | 0.8 to 2.5 | CC(C)(C)c1ccc(-c2cnc(-c3ccc(C[C@@H](NC(=O)c4ccc(C(C)(C)C)s4)C(=O)NCC(=O)O)cc3)nc2)cc1 [Compound 373]
43 | 0.8 to 2.5 | CCCCCCCOc1ccc(-c2cnc(-c3ccc(C[C@H](NC(=O)c4cccc(C)c4)C(=O)O)cc3)nc2)cc1 [Compound 111]
44 | 2.5 to 5 | CCCCCCCOc1ccc(-c2cnc(-c3ccc(C[C@H](NS(=O)(=O)c4ccc(C(F)(F)F)cc4)C(=O)O)cc3)nc2)cc1 [Compound 190]
45 | 0.8 to 2.5 | CCCCCCCOc1ccc(-c2nc(-c3ccc(C[C@H](NC(=O)c4ccc(C(C)(C)C)cc4)C(=O)O)cc3)ns2)cc1 [Compound 84]
46 | 0.8 to 2.5 | CCCCCCCOc1ccc(-c2cnc(-c3ccc(C[C@H](NC(=O)c4ccc(C(C)C)cc4)C(=O)N[C@@H](C)C(=O)O)cc3)nc2)cc1 [Compound 305]
47 | 0.8 to 2.5 | CCCc1ccc(C(=O)N[C@@H](Cc2ccc(-c3ncc(-c4ccc(C(C)(C)C)cc4)cn3)cc2)C(=O)O)cc1 [Compound 164]
48 | 0.8 to 2.5 | CCCCCCCOc1ccc(-c2ccc(-c3ccc(C[C@H](NC(=O)c4ccc(C(C)(C)C)s4)C(=O)NCC(=O)O)cc3)nc2)cc1 [Compound 285]
49 | 0.8 to 2.5 | CCCCCCCOc1ccc(-c2cnc(-c3ccc(C[C@H](NC(=O)c4ccc(C(C)(C)C)s4)C(=O)NC(C)(C)CC(=O)O)cc3)nc2)cc1 [Compound 335]
50 | < 0.8 | CCCCCCCOc1ccc(-c2cnc(-c3ccc(C[C@H](NC(=O)c4ccc(C(C)(C)C)s4)C(=O)N[C@@H](CCC(N)=O)C(=O)O)cc3)nc2)cc1 [Compound 320, ((S)-2-(5-(tert-butyl)thiophene-2-carboxamido)-3-(4-(5-(4-(heptyloxy)phenyl)pyrimidin-2-yl)phenyl)propanoyl)-L-glutamine]
51 | 0.8 to 2.5 | CCCCCCCOc1ccc(-c2cnc(-c3ccc(C[C@H](NC(=O)c4ccc(CC)cc4)C(=O)O)cc3)nc2)cc1 [Compound 89]

— patent US8778923B2, “GLP-1 receptor modulators” (Receptos, Inc., priority 2011, dated 2014)
